Measurements published in patent publication US4656178A (priority 1985, dated 1987).
Structures can show the parent of a compound that is named as a salt. Where two headings read alike, the source gives them in different places.

Experiments:
[1] = long-time administration, histological analysis of inner organs; type: in vivo, laboratory animals (dogs, rabbits, rats); conditions: 10 mg/kg
aconitine arrhythmia [2] = experiment: animal or person; type: in vivo, rats
Procedure: The assessment of the antiarrhythmic activity of the preparation was effected in acute and chronical experiments on rats, rabbits, cats and dogs. Various experimental models of arrhythmia were also used.
(§1) The atrioventricular arrhythmia caused by aconitine is one of the most reliable models for forecasting the efficiency of the antiarrhythmic action of the novel preparation in clinics. The experiments were conducted on both narcotized and non-narcotized animals. The preparation was administered per os, intramuscularly, intraperitoneally and intravenously 5 to 15 minutes prior to or 3-5 minutes after the administration of aconitine.
In doses of 0.2-0.5 mg/kg the preparation of this invention prevents the appearance of aconitine arrhythmia in 100% of the rats. […] Under similar experimental conditions a preliminary administration of novocainamide in the dose of 60 mg/kg intravenously produced an antiarrhythmic effect in 50% of the animals.

[3] = test system: arrhythmia induced by adrenalin; experiment: arrhythmia induced by adrenalin in dogs with ligated coronary artery; type: in vivo; conditions: 0.1-0.2 mg/kg
aconitine arrhythmia [4] = type: in vivo, rats
Procedure: as §1
The antiarrhythmic activity of the pharmaceutical composition according to the present invention upon administration thereof against the background of a developing aconitine arrhythmia (therapeutic effect) was studied on 110 narcotized rats. The preparation was intravenously administered at intervals of 3-6 minutes against the background of the originated arrhythmia.

[5] = test system: cardiac arrhythmia induced by barium chloride; experiment: cardiac arrhythmia induced by barium chloride; type: in vivo, narcotized rats and intact rabbits; conditions: 0.1 mg/kg, injected 10 minutes prior to barium
Procedure: The study of the antiarrhythmic activity of the preparation according to the present invention on a model of cardiac arrhythmia induced by barium chloride was carried out on 56 narcotized rats and 16 intact rabbits. The preparation of the present invention in the dose of 0.1 mg/kg injected 10 minutes prior to administration of barium prevented the development of arrhythmia in 86.6% of the animals.

solubility = type: physicochemical
Procedure: The aerial portion and roots (tubers) of the plant Acontium leucostomum are disintegrated. The disintegrated air-dry raw material is wetted with a 3% solution of sodium carbonate and 1 hour thereafter is poured with chloroform. 12 hours afterwards the chloroform is drained and the plant is treated with a fresh portion of chloroform. There are thus obtained 8 extracts which are combined and evaporated under vacuum to a small volume. From the concentrated chloroform extract the alkaloids are recovered by means of a 2% sulphuric acid. The combined acid extracts are washed with chloroform, alkalinized by soda and extracted with chloroform. The chloroform extract is evaporated and the residue is treated with acetone to give a commercial product--lappaconitine which is recrystallized from methanol. Methanolic solution of lappaconitine and hydrobromic acid are mixed. […] M.p. is 216°-220° C., [α]D^24 =+27 (alcohol); C32 H44 O8 N2.HBr, molecular weight= 664.9.

carcinogenicity = type: in vivo; conditions: subcutaneously and per os, 0.5-2 mg/kg, 6 months, observation 2 years
[6] = resorptive effect and toxicity (general state); type: in vivo, mice, rats, rabbits and dogs
Text: The resorptive effect and toxicity of the preparation according to the present invention were studied on mice, rats, rabbits and dogs.

[7] = 6-month histological toxicity, rats; type: in vivo; conditions: per os, 1 mg/kg, 6 months
antiinflammatory effect = type: in vivo; conditions: doses of 1-5 mg/kg
[8] = test system: potassium channels of the membrane of neurons; experiment: ion currents through the somatic membrane of mollusc neurons: potassium channels; type: cell-based, mollusca
Text: The study of the effect produced by the preparation of the present invention on ion currents through the somatic membrane of neurons has shown that it selectively interacts with calcium and potassium channels of the membrane of neurons of mollusca, whereby the currents along these channels are suppressed.

[9] = test system: arrhythmia caused by electrical irritation; experiment: arrhythmia caused by electrical irritation of the right auricle and apex of the left ventricle; type: in vivo, dogs and cats
[10] = test system: cardiotoxic effect of the preparation; experiment: sodium bicarbonate at cardiotoxic effect of the preparation in dogs; conditions: toxic doses
frog's heart = experiment: amplitude of cardiac contractions of isolated frog's heart (Schtraube); conditions: concentration of 10^-6 -5.10^-5 g/ml
Text: To find out a negative inotropic effect on the heart tissue, two series of experiments have been carried out:
(1) the study of the effect of the preparation of this invention on the amplitude of the cardiac contractions of a frog's heart isolated according to Schtraube;

[11] = test system: cardiac arrhythmia caused by ligation of the descending branch of the left coronary artery; experiment: cardiac arrhythmia caused by ligation of the descending branch of the left coronary artery (Harris method) in dogs; type: in vivo
Procedure: The effect of the preparation according to the present invention on the cardiac arrhythmia caused by ligation of the descending branch of the left coronary artery by the Harris method was studied in experiments on dogs. The preparation according to the present invention was intravenously administered on the first and second post-operative days. Preliminarily, prior to every experiment 30 to 45 minutes before the administration of the preparation the background changes of the dogs' electrocardiogram (ECG) were recorded. […] In 40% thereof a full suppression of ectopic contractions was noticed for 3-3.5 hours, whereafter arrhythmia appeared with the intensity thereof not reaching the initial background during 7 hours.

SMILES: CCN1CC2(OC(=O)c3ccccc3NC(C)=O)CCC(OC)C34C1C(CC23)C1(O)CC(OC)C2CC4C1(O)C2OC (centres unmarked) [lappaconitine hydrobromide]
- structural changes in inner organs [1]: structural changes in the inner organs
- minimal effective dose (aconitine arrhythmia [2]; Rattus norvegicus, read-out: dose from which the antiarrhythmic effect is revealed): 0.03 mg/kg
- animals in which appearance of aconitine arrhythmia is prevented (aconitine arrhythmia [2]; doses of 0.2-0.5 mg/kg, rats): 100%
- antiarrhythmic index (LD50/ED50) (aconitine arrhythmia [2]; prophylactic effect, aconitine arrhythmia): 118.0
- duration of effect [3]: more than 2 hours
- effect on arrhythmia induced by adrenalin [3]: cuts short the arrhythmia induced by adrenalin
- effect on arterial pressure and on adrenalin hypertension [3]: does not affect the level of arterial pressure or the height of elevation of arterial pressure (hypertension) caused by adrenalin
- time to maximum effect [3]: 5 to 10 min
- animals with complete restoration of normal sinus rhythm (aconitine arrhythmia [4]; 0.1 mg/kg intravenously): 50%
- time to restoration of normal sinus rhythm (aconitine arrhythmia [4]; 0.1 mg/kg, control arrhythmia lasts 120 minutes): 30 to 35 min
- complete elimination of arrhythmia and restoration of correct sinus rhythm (aconitine arrhythmia [4]; 0.3 to 0.5 mg/kg): complete elimination of arrhythmia and restoration of the correct sinus rhythm in all the animals
- time to complete elimination of arrhythmia (aconitine arrhythmia [4]; 0.3 to 0.5 mg/kg): 1 to 2 min
- antiarrhythmic index (LD50/ED50) (aconitine arrhythmia [4]; against background of developing aconitine arrhythmia): 59
- animals in which development of arrhythmia is prevented [5]: 86.6%
- solubility (solubility): soluble in water, alcohol, better in methanol
- carcinogenic properties (carcinogenicity): no carcinogenic properties
- changes in general state of animals ([6]; 0.1-1 mg/kg intravenously, 1-5 mg/kg intraperitoneally, 5-20 mg/kg per os): no considerable changes in the general state of the animals are observed
- signs in mice and rats ([6]; higher doses, 5 minutes on average after administration): adynamia, delayed responses, weakening of the muscular tension, rarification and deepening of breathing, lowering of the body temperature
- additional signs ([6]; sublethal and lethal doses): hypersalivation, diarrhea, acute disturbances of breathing
- destructive changes of inner organs and tissues [7]: no destructive changes on the part of inner organs and tissues
- antiinflammatory effect (antiinflammatory effect): pronounced antiinflammatory effect
- effect on currents along potassium channels [8]: suppressed
- arterial pressure and amplitude of the heart beat ([9]; 0.25 and 0.5 mg/kg): not changed
- duration of antiarrhythmic effect ([9]; 0.25 and 0.5 mg/kg): 2 to 3 h
- arrest of arrhythmia caused by electrical irritation ([9]; 0.25 and 0.5 mg/kg intravenously, 7 dogs and 10 cats): fully stops the origination of arrhythmia
- onset of antiarrhythmic effect ([9]; after administration, 0.25 and 0.5 mg/kg): 3 to 7 min
- activity relative to quinidine and novocainamide (times superior) ([9]; dog, in vivo): 40 times
- arterial pressure in overdosing [10]: reduction of the arterial pressure
- negative inotropic effect, isolated heart (frog's heart): does not provide a negative inotropic effect
- animals with antiarrhythmic effect ([11]; 0.5 mg/kg intravenously): 86%
- animals with 100% antiarrhythmic effect over 5 hours ([11]; 1 mg/kg): 60%
- animals with full suppression of ectopic contractions for 3-3.5 hours ([11]; 1 mg/kg): 40%
- animals with full inhibition of ventricular extrasystole ([11]; 1 mg/kg intravenously): 100%
- duration of full suppression of ectopic contractions ([11]; 1 mg/kg, in 40% of the animals): 3 to 3.5 h
- time during which reappearing arrhythmia does not reach the initial background ([11]; 1 mg/kg, in 40% of the animals): 7 h
- duration of 100% antiarrhythmic effect ([11]; 1 mg/kg, in 60% of the animals): over 5 hours
- heart beat rate ([11]; accompanying reduction or arresting of arrhythmia, all experiments): reduction of the heart beat rate
- time of appearance of antiarrhythmic effect ([11]; after intravenous administration): 5 to 15 min
- activity relative to novocainamide (times more active) ([11]; dog, in vivo): 70 times
- duration and rapidity of effect relative to novocainamide ([11]; dog, in vivo): considerably superior to it in the duration of the effect, but inferior to novocainamide in the rapidity of occurrence of the antiarrhythmic effect
- relationship of effect to dose ([11]; dog, in vivo): in a direct relationship with the administered dose
